From patent US5552267A, “Solution for prolonged organ preservation” (priority 1994, dated 1996)

Experiments:
[1] = tested on: neutrophil infiltration of lung graft; assay: lung graft myeloperoxidase assay, cGMP series; assay type: in vivo, rat; conditions: 6 h in EC then transplantation
Experimental: Thirty minutes following restoration of blood flow, transplanted lungs were excised, rinsed briskly in physiologic saline, and snap frozen in liquid nitrogen until the time of assay. These lungs were then homogenized in phosphate buffer (50 mM; pH 6.0, 5 ml/gm of tissue) containing hexadecyltrimethylammonium bromide (0.5%; HTAB, [Sigma]) and frozen at -80° C. The myeloperoxidase assay was performed, as described^32, by thawing the sample, centrifuging at 40,000 g for 15 minutes at 4° C., and decanting the supernatant, which was assayed for myeloperoxidase activity using standard chromogenic spectrophotometric technique: test sample (0.03 ml) was added to sample buffer (0.97 ml of 50 mM phosphate buffer, pH 6.0) containing O-dianisidine dihydrochloride (Sigma), hydrogen peroxide (0.006%), and change in absorbance at 460 nm was measured over 1 min (increase in OD was linear over this time interval).

[2] = tested on: cGMP-dependent protein kinase; conditions: vs cAMP-dependent protein kinase; cited from earlier work
[3] = tested on: cGMP-regulated phosphodiesterases; conditions: cited from earlier work
[4] = tested on: platelet accumulation in lung graft; assay: graft platelet accumulation (111Indium-labelled platelets); assay type: in vivo, rat; conditions: NTG 0.1 mg/mL in EC, 6 h
Experimental: Graft platelet accumulation was determined using ^111 Indium-labelled platelets, prepared as described^39. Blood (5.0 mL) was taken from a gender/strain matched donor rat and heparinized (2500 units). Platelets were isolated by differential centrifugation, first at 300 g for 5 minutes to obtain platelet-rich plasma, which was then washed 3 times at 2,000 g for 15 minutes in 10 ml of acid-citrate-dextrose-anticoagulant (ACD-A; citric acid 38 mM, sodium citrate 75 mM, glucose 135 mM). The pellet was suspended in 5 mL of ACD-A, centrifuged at 100 g for 5 minutes to remove contaminating red blood cells, and the supernatant collected. ^111 Indium oxyquinoline (70 μL of 1 mCi/mL, Amersham Mediphysics, Arlington Heights, Ill.) was added with gentle shaking for 30 minutes at room temperature. […] One minute following platelet infusion (immediately prior to reperfusion), 0.5 mL of blood was taken from the left atrium to determine blood radioactivity, to ascertain blood platelet concentrations to normalize for variations in blood loss during surgery. Five minutes following reperfusion, the native right pulmonary artery was ligated, the graft was removed 10 minutes thereafter, and ^111 Indium-platelet deposition quantified by gamma counting. Platelet accumulation was expressed as the ratio of graft radioactivity to blood radioactivity normalized to dry weight.

[5] = tested on: nitric oxide in expired air; conditions: in vivo; cited from earlier work

SMILES | myeloperoxidase activity (dAbs 460 nm/min) [1] | times more potent at stimulating cGMP- than cAMP-dependent protein kinase [2] | interaction with allosteric binding sites [3] | graft platelet accumulation [4] | nitric oxide in expired air [5]
Nc1nc2c(nc(Br)n2[C@@H]2O[C@@H]3COP(=O)(O)O[C@H]3[C@H]2O)c(=O)[nH]1 [8-Br-cGMP, 8-bromoguanosine-3'5' cyclic monophosphate] | 1.75±0.13 dAbs 460 nm/min | 500 times | does not interact with the allosteric binding sites | – | –
O=[N+]([O-])OCC(CO[N+](=O)[O-])O[N+](=O)[O-] [NTG, nitroglycerin] | – | – | – | significant decline in both neutrophil and platelet accumulation | increase nitric oxide in expired air
